Experimental data taken from patent US20210161868A1, “ANTI-INFLAMMATORY THERAPY IN ARRHYTHMOGENIC CARDIOMYOPATHY (ACM)” (Beth Israel Deaconess Medical Center, Inc., priority 2018, published 2021).
Entries after “also recorded” stand apart in the source; their conditions may differ.

Legend:
[1] = test system: models of ACM; details: multiple in vitro and in vivo models, human iPSC-cardiac myocytes; cited from earlier work
[2] = test system: ACM mice; assay: Arrhythmias in ACM mice treated with SB216763 (previous unpublished observations); type: in vivo
[3] = test system: neonatal rat ventricular myocytes (NRVMs) expressing JUP^2157del2; details: NRVMs expressing mutant plakoglobin, previous reports; cited from earlier work

SMILES: Cn1cc(C2=C(c3ccc(Cl)cc3Cl)C(=O)NC2=O)c2ccccc21 [SB216763]
- full ACM disease phenotype [1]: prevent and/or reverse
- time to return of arrhythmias after cessation of treatment ([2]; ACM mice): ≤ 48 h
- time to cessation of arrhythmias ([2]; ACM mice under treatment): ≤ 24 h
- in vitro ACM features (protein redistribution, apoptosis, cytokines) [3]: blocked; also recorded: normalized
